Laboratory results published in US20150175599A1, “FAAH Inhibitors” (Ironwood Pharmaceuticals, Inc., priority 2010, published 2015).

Target: T1, FAAH (Rattus norvegicus, UniProt P97612)
T1 construct: For the assay of FAAH activity in rat brain membrane (RBM) homogenates; tissue Charles River (animals); host or cells: rat whole brain, membrane fraction
T1 sequence (P97612 1-579): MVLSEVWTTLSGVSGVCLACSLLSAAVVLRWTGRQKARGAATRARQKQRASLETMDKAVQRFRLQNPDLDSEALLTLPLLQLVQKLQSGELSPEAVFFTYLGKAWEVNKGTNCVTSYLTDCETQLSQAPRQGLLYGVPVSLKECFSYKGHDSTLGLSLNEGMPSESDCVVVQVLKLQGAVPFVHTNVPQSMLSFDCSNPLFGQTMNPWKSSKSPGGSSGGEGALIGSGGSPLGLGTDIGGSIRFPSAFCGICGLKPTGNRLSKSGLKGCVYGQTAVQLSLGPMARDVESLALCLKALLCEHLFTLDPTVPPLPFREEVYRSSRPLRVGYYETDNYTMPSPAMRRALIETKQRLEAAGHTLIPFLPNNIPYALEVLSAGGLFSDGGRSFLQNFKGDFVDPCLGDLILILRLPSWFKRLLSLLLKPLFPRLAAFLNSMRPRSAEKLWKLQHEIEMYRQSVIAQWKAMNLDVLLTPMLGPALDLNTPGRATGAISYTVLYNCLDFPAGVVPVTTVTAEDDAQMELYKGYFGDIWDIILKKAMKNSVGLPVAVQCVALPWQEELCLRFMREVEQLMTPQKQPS
Test: FAAH inhibition, rat brain membrane homogenate assay
Assay type: biochemical
Details: rat brain homogenate; average activity; read-out: Rat Brain Extract FAAH IC50
Outline: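 Membranes from female CD rat brain (Tris pH 7.4/EDTA/MgCl2 resuspension), 7 μg protein, incubated 10 min at 37 °C with [3H]anandamide plus […] unlabelled AEA, 1 mg/mL fatty acid-free BSA, Tris-HCl pH 6.5, 1 mM EDTA, 1% DMSO. [3H]ethanolamine separated by chloroform/methanol extraction or charcoal filtration, scintillation-counted; IC50 derived.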

`COc1cc(NC(=O)C(=O)c2c(C)n(Cc3ncc(Cl)cc3Cl)c3cc(Cl)c(OC)cc23)ccn1` [Compound 70, 2-(6-chloro-1-((3,5-dichloropyridin-2-yl)methyl)-5-methoxy-2-methyl-1H-indol-3-yl)-N-(2-methoxypyridin-4-yl)-2-oxoacetamide] was tested. Which IC50 did it give?
Its IC50 is < 100 nM.

How did the IC50 turn out when `COc1cc(NC(=O)C(=O)c2c(C)n(Cc3ccc(Cl)cc3)c3ccc(OC)c(Cl)c23)ccn1` [Compound 58, 2-(4-chloro-1-(4-chlorobenzyl)-5-methoxy-2-methyl-1H-indol-3-yl)-N-(2-methoxypyridin-4-yl)-2-oxoacetamide] was run?
Its IC50 is 100 to 1000 nM.

How did the IC50 turn out when `COc1cc(NC(=O)C(=O)c2c(C)n(Cc3ncc(Cl)cc3F)c3ccc(C)cc23)ccn1` [Compound 33, 2-(1-((5-chloro-3-fluoropyridin-2-yl)methyl)-2,5-dimethyl-1H-indol-3-yl)-N-(2-methoxypyridin-4-yl)-2-oxoacetamide] was run?
The IC50 was < 100 nM.

`COc1cc(NC(=O)C(=O)c2c(C)n(Cc3ccc(Cl)cc3)c3ccc(C(C)=O)cc23)ccn1` [Compound 5, 2-(5-acetyl-1-(4-chlorobenzyl)-2-methyl-1H-indol-3-yl)-N-(2-methoxypyridin-4-yl)-2-oxoacetamide] was tested. Which IC50 did it give?
Its IC50 is < 100 nM.

For `COc1ccc(Cn2c(C)c(C(=O)C(=O)Nc3ccnc(OC)c3)c3cc(OC)c(F)cc32)nc1` [Compound 32, 2-(6-fluoro-5-methoxy-1-((5-methoxypyridin-2-yl)methyl)-2-methyl-1H-indol-3-yl)-N-(2-methoxypyridin-4-yl)-2-oxoacetamide], which IC50 is on record?
Its IC50 is < 100 nM.

How did the IC50 turn out when `COc1cc(NC(=O)C(=O)c2c(C)n(Cc3ccc(Cl)cc3)c3ccc(NC(C)=O)cc23)ccn1` [Compound 22, 2-(5-acetamido-1-(4-chlorobenzyl)-2-methyl-1H-indol-3-yl)-N-(2-methoxypyridin-4-yl)-2-oxoacetamide] was run?
The IC50 was 100 to 1000 nM.

For `COc1ccc2c(c1)c(C(=O)C(=O)Nc1ccnc(OC)c1Cl)c(C)n2Cc1ccc(Cl)cc1` [Compound 52, N-(3-chloro-2-methoxypyridin-4-yl)-2-(1-(4-chlorobenzyl)-5-methoxy-2-methyl-1H-indol-3-yl)-2-oxoacetamide], which IC50 is on record?
The IC50 was > 10000 nM.

`COc1cc(NC(=O)C(=O)c2c(C)n(Cc3ccc(Cl)cn3)c3ncc(C)cc23)ccn1` [Compound 75, (1-((5-chloropyridin-2-yl)methyl)-2,5-dimethyl-1H-pyrrolo[2,3-b]pyridin-3-yl)-N-(2-methoxypyridin-4-yl)-2-oxoacetamide] was tested. Which IC50 did it give?
The IC50 was < 100 nM.

With `COc1ccc2c(c1)c(C(=O)C(=O)Nc1ccnc(OC)c1)c(C)n2Cc1ccncc1` [Compound 16, 2-(5-methoxy-2-methyl-1-(pyridin-4-ylmethyl)-1H-indol-3-yl)-N-(2-methoxypyridin-4-yl)-2-oxoacetamide] as the compound, how does the IC50 read?
The IC50 was 100 to 1000 nM.

`COc1cc(NC(=O)C(=O)c2c(C)n(Cc3ccc(Cl)cc3)c3ccc(N)c(Cl)c23)ccn1` [Compound 73, 2-(5-amino-4-chloro-1-(4-chlorobenzyl)-2-methyl-1H-indol-3-yl)-N-(2-methoxypyridin-4-yl)-2-oxoacetamide] was tested. Which IC50 did it give?
Its IC50 is 100 to 1000 nM.

`COc1cc(NC(=O)C(=O)c2c(C)n(Cc3ccc(Cl)cn3)c3ccc(C)cc23)ccn1` [Compound 61, 2-(1-((5-chloropyridin-2-yl)methyl)-2,5-dimethyl-1H-indol-3-yl)-N-(2-methoxypyridin-4-yl)-2-oxoacetamide] was tested. Which IC50 did it give?
Its IC50 is < 100 nM.

Which IC50 does the source give for `COc1ccc2c(c1)c(C(=O)C(=O)Nc1ccnc(OC)n1)c(C)n2Cc1ccc(Cl)cc1` [Compound 46, 2-(1-(4-chlorobenzyl)-5-methoxy-2-methyl-1H-indol-3-yl)-N-(2-methoxypyrimidin-4-yl)-2-oxoacetamide] here?
The IC50 was < 100 nM.

Which IC50 does the source give for `CCN(CC)c1ccc2c(c1)c(C(=O)C(=O)Nc1ccnc(OC)c1)c(C)n2Cc1ccc(Cl)cc1` [Compound 24, 2-(1-(4-chlorobenzyl)-5-(diethylamino)-2-methyl-1H-indol-3-yl)-N-(2-methoxypyridin-4-yl)-2-oxoacetamide] here?
Its IC50 is 100 to 1000 nM.

For `COc1ccc2c(c1)c(C(=O)C(=O)Nc1ccnc(OC)c1F)c(C)n2Cc1ccc(Cl)cc1` [Compound 53, 2-(1-(4-chlorobenzyl)-5-methoxy-2-methyl-1H-indol-3-yl)-N-(3-fluoro-2-methoxypyridin-4-yl)-2-oxoacetamide], which IC50 is on record?
The IC50 was < 100 nM.

With `COc1cc(NC(=O)C(=O)c2c(C)n(Cc3ccc(Cl)cc3)c3ccc(N(C)C(=O)OC(C)(C)C)cc23)ccn1` [Compound 7, Tert-butyl(1-(4-chlorobenzyl)-3-(2-((2-methoxypyridin-4-yl)amino)-2-oxoacetyl)-2-methyl-1H-indol-5-yl)(methyl)carbamate] as the compound, how does the IC50 read?
The IC50 was 100 to 1000 nM.
